ChEMBL document CHEMBL3745668, “Synthesis and biological evaluation of novel 5-hydroxylaminoisoxazole derivatives as lipoxygenase inhibitors and metabolism enhancing agents” (Bioorg Med Chem, 2016)
pEC50, pIC50: −log10 of the molar value. Calls of active or inactive are those of the source. No cut-off for these calls is given here.

Experiments:
SH-SY5Y = test: Cytotoxicity against human SH-SY5Y cells assessed as reduction in cell viability at 30 uM after 24 hrs by MTT assay relative to control; type: cell-based
Rattus norvegicus [1] = species: Rattus norvegicus; test: Effect on calcium-induced depolarization of albino rat liver mitochondria using succinate as substrate by safranine A staining based assay in presence of rotenone or glutamate/malate; type: functional
Rattus norvegicus [2] = species: Rattus norvegicus; test: Effect on mitochondrial membrane potential in albino rat liver mitochondria using succinate as substrate by safranine A staining based assay in presence of rotenone or glutamate/malate; type: functional
Rattus norvegicus [3] = species: Rattus norvegicus; test: Increase in oxygen consumption rate of mitochondrial coupled state respiration in albino rat liver mitochondria using succinate as substrate at 10 uM by XF96 extracellular flux analysis in presence of rotenone; type: functional
Rattus norvegicus [4] = species: Rattus norvegicus; test: Increase in FCCP-stimulated oxygen consumption rate of mitochondrial coupled state respiration in albino rat liver mitochondria at 10 uM by XF96 extracellular flux analysis; type: functional
Rattus norvegicus [5] = species: Rattus norvegicus; test: Increase in oxygen consumption rate of mitochondrial resting respiration in albino rat liver mitochondria at 10 uM by XF96 extracellular flux analysis in presence of oligomycin; type: functional
[6] = Antioxidant activity assessed as DPPH radical scavenging activity after 30 mins by spectrophotometry analysis; type: physicochemical
[7] = molecular target: T1, Seed linoleate 13S-lipoxygenase-1 (Glycine max, UniProt P08170); test: Inhibition of soybean LOX1 assessed as reduction in linoleic acid oxidation measured every 10 s for 10 mins by spectrophotometry analysis; conditions: for pIC50: read-out: IC50
T1 sequence (P08170 whole entry): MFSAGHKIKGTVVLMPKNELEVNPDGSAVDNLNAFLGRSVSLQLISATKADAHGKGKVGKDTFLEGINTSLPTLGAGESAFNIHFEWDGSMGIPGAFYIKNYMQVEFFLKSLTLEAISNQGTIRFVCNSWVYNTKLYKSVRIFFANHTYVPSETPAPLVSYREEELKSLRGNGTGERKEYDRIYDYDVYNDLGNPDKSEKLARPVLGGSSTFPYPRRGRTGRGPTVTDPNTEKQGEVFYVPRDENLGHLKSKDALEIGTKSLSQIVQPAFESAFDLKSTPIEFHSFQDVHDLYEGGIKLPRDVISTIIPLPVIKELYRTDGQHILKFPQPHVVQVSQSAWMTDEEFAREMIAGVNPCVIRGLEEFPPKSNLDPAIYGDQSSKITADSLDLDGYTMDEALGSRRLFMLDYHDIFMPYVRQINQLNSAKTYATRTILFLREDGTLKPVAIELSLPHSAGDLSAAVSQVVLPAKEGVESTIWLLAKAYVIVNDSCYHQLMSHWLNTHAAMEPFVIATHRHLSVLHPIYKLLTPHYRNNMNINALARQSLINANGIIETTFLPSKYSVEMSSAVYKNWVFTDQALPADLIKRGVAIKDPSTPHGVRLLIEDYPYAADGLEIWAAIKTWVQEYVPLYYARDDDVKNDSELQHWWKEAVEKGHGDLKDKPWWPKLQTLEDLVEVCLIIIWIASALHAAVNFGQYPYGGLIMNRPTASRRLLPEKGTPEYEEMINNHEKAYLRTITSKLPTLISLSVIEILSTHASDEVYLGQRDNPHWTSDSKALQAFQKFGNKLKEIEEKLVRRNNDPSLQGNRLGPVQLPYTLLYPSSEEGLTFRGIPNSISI

[8] = Cytotoxicity against albino rat primary cerebellar granule neurons assessed as reduction in cell viability at 30 uM after 24 hrs by MTT assay; conditions: primary cerebellar granule neuron
Brain [9] = test: Antioxidant activity in albino rat brain homogenate assessed as inhibition of Fe(II)-induced lipid peroxidation after 60 mins by TBARS assay; type: functional, tissue-based; conditions: for pIC50: Rattus norvegicus, Brain, 1 h, read-out: IC50
Brain [10] = test: Antioxidant activity in albino rat brain homogenate assessed as inhibition of Fe(III)-induced lipid peroxidation after 60 mins by TBARS assay; type: functional, tissue-based; conditions: 1 h
Brain [11] = test: Antioxidant activity in Wstar rat brain homogenate assessed as inhibition of Fe(II)-induced TBARS formation incubated for 15 mins by spectrophotometry analysis; type: functional, tissue-based; conditions: 0.25 h
[12] = Antioxidant activity assessed as DPPH radical scavenging activity after 20 mins; type: physicochemical
[13] = molecular target: T2, Seed linoleate 13S-lipoxygenase-1 (Glycine max) (UniProt P08170); test: Inhibition of soybean LOX1 assessed as reduction in linoleic acid oxidation at 50 uM measured every 10 s for 10 mins by spectrophotometry analysis
T2 sequence (whole entry): T1 sequence (P08170 whole entry)

[14] = Cytotoxicity against albino rat primary cerebellar granule neurons assessed as reduction in cell viability at 30 uM after 24 hrs by MTT assay relative to control; conditions: primary cerebellar granule neuron

SMILES	Activity (SH-SY5Y)	Activity (Rattus norvegicus [1])	Activity (Rattus norvegicus [2])	Activity (Rattus norvegicus [3])	Activity (Rattus norvegicus [4])	Activity (Rattus norvegicus [5])	pEC50 [6]	pIC50 [7]	Activity [8]	pIC50 (Brain [9])	pIC50 (Brain [10])	pIC50 (Brain [11])	pIC50 [12]	IC50 [7]	IC50 (Brain [9])	inhibition [13]	Activity [14]
O=C(OCC12CC3CC(CC(C3)C1)C2)c1cc(N(O)C2CCCO2)on1 (stereo not given)	22%	inactive	inactive	Active	Active	inactive	4.15	4.80	Non-toxic	5.18	4.66	–	–	–	–	–	–
C[C@H](c1cc2ccccc2s1)N(O)C(N)=O	–	–	–	–	–	–	4.85	–	–	–	–	< 4.30	4.37	–	–	–	–
O=C(OCCOC12CC3CC(CC(C3)C1)C2)c1cc(N(O)C2CCCO2)on1 (stereo not given)	–	inactive	inactive	Active	Active	inactive	< 4.00	–	Non-toxic	–	4.46	–	–	Not Active	Not Active	–	–
O=C(OC12CC3CC(CC(C3)C1)C2)c1cc(N(O)C2CCCO2)on1 (stereo not given)	–	inactive	inactive	Active	Active	inactive	4.80	4.60	–	6.48	5.86	–	–	–	–	–	–
O=C(OC1C2CC3CC(C2)CC1C3)c1cc(N(O)C2CCCO2)on1 (stereo not given)	–	inactive	inactive	–	–	–	4.15	5.40	–	4.98	5.92	–	–	–	–	–	–
O=C(OCc1ccc(C23CC4CC(CC(C4)C2)C3)cc1)c1cc(N(O)C2CCCO2)on1 (stereo not given)	–	inactive	inactive	Active	Active	inactive	< 4.00	–	Non-toxic	5.47	5.26	–	–	Not Active	–	–	–
CC12CC3CC(C)(C1)CC(OC(=O)c1cc(N(O)C4CCCO4)on1)(C3)C2 (stereo not given)	–	inactive	inactive	Active	Active	inactive	4.42	6.00	Non-toxic	5.29	5.83	–	–	–	–	Active	–
CC(C)OC(=O)C12CC3CC(CC(OC(=O)c4cc(N(O)C5CCCO5)on4)(C3)C1)C2 (stereo not given)	–	inactive	inactive	Active	Active	inactive	< 4.00	3.56	Non-toxic	5.56	5.80	–	–	–	–	–	–
O=C(OCCC12CC3CC(CC(C3)C1)C2)c1cc(N(O)C2CCCO2)on1 (stereo not given)	–	inactive	inactive	Active	Active	inactive	4.68	6.40	–	5.50	5.28	–	–	–	–	–	77%
